For experiment [1], the system named is HepG2 cells. Conditions: read-out: IC50, expected literature value reported in the manual for the Neutral Red Assay; cited from earlier work.
In experiment [2] the test system is HepG2 cells. Put plainly: cells. The settings on record: Homo sapiens, HepG2, 48 h.
Experimental: This cellular assay quantitates the amount of ATP that can be correlated to cell viability. HepG2 cells were supplied by ATCC (HB-8065), cultured in DMEM supplemented with 10% FBS and grown in a incubator set to 37° C. and 5% CO2. For both assays, cells were seeded at 5.000 cells/well in a 96-well plate using only the 32 central wells. Due to inherent clumping of HepG2 cells, amount of cells could not be properly measured and varied between assays. Various concentrations of Doxorubicin were added 18 hours after seeding to the cells at a volume of 0.2 μL of cells using IDOT. Cells were processed after 2 days of compound addition. The CellTiter-Glo 2.0 Cell Viability Assay (G9242, Promega) was used. The solution was thawed and stored at 4° C. as recommended. Cell medium was removed, then cells were washed 2× in 100 μL PBS. After the last wash, 50 μL of PBS followed by 50 μL of CellTiter-Glo 2.0 reagent were added. The 96-well plate was mixed for 2 min on an orbital shaker and incubated at 10 min at RT. Luminescence was recorded at a microplate reader, using a integration time of 1.000 ms. For both assays, data for dose-response experiments was fitted with the equation “Log(agonist) vs response−Variable slope (four parameters)” using Prism.
Experiment [3] concerns HepG2 cells. Put plainly: Neutral Red Assay, cell viability/cytotoxicity. The class given is cell-based. The settings on record: Homo sapiens, 48 h, 2 days after compound addition, n=3.
Experimental: It is a cellular assay that is based on a eurhodin dye that stains the lysosomes of viable cells. HepG2 cells were supplied by ATCC (HB-8065), cultured in DMEM supplemented with 10% FBS and grown in a incubator set to 37° C. and 5% CO2. For both assays, cells were seeded at 5.000 cells/well in a 96-well plate using only the 32 central wells. Due to inherent clumping of HepG2 cells, amount of cells could not be properly measured and varied between assays. […] Cells were processed after 2 days of compound addition. The Neutral Red Assay Kit—Cell Viability/Cytotoxicity (ab234039, Abcam) was used. All solutions of the kit were aliquoted and stored at −20° C. as recommended. […] Cell medium was removed and cells washed with 200 μL of 1× washing solution. After addition of 150 μL of 1× Neutral Red Staining Solution, cells were stained for 2 hours in the incubator. Cells were washed with 250 μL of 1× washing solution, and then air dried for approx. 10 min until no liquid was visible on the plate. Addition of 150 μL 1× solubilization solution was followed by shaking the plate for 20 min at 500 rpm and RT. The 96-well plate was then read at a microplate reader at an OD of 540 nm.

This is an account of results in patent US20250072441A1, “METHOD FOR PREPARING A COMESTIBLE NUTRIENT COMPOSITION AND USE THEREOF” (The Cultivated B. GmbH, priority 2022, published 2025).

By IC50 is commonly meant the point on the concentration scale where inhibition reaches its midpoint.

Like-named read-outs stand apart in the source and are kept apart here.

Turning to `COc1cccc2c1C(=O)c1c(O)c3c(c(O)c1C2=O)C[C@@](O)(C(=O)CO)C[C@@H]3O[C@H]1C[C@H](N)[C@H](O)[C@H](C)O1` [Doxorubicin], the figures for the IC50 in the experiment with HepG2 cells [1], in the experiment with HepG2 cells [2] and with HepG2 cells [3] were 690 nM, 116 nM and 79 nM, respectively.
